Experiments:
Format in all cases: in vivo, pig
pigs [1] = assay: Swine growth performance, Study B / Example 2: pigs fed 25-OH D3, farrowed to sows fed without 25-OH D3
Excerpt: (§1) Study A. Two treatment groups were used in all studies. The control group contained first-to-fifth parity pigs (sows and progenies) fed rations without 25-OH D3 supplementation. The experimental group was made up of first-to-fifth parity pigs fed rations supplemented with 50 mcg 25-OH D3/kg diet) and farrowed to sows fed rations supplemented with 25-OH D3 since 6 months old. Study A only covered the pre-starter to finisher stage (41-150 days old) for the first to third parities pigs, while it covered the booster to finisher stage (7-150 days old) for the fourth and fifth parity pigs. Study B. Two treatment groups were also used in this study. Pigs were randomly selected from mixed-parity sows fed rations containing no supplemental 25-OH on the same farm. The control group was fed rations without 25-OH D3, whereas the experimental group was fed rations supplemented with 25-OH D3 (50 mcg 25-OH D3/kg diet). Study B covered the pre-starter to finisher stage (41-150 days old). Number of pigs and replicates: There were 8-11 replicates per treatment and 4 pigs per replicate. Randomization and Allotment of pigs: Pigs were grouped according to size and sex and randomly allocated to each treatment. The number of male-replicates for the two treatments were equalized. Rations: The rations involved in all studies were gestating and lactation rations for the sows. Booster, pre-starter, starter, grower and finisher rations were given to the progenies. Feeding: The experimental pigs were fed ad libitum with dry feeds. Booster pigs (sucklings) were fed starting when they were 7 days old. Feeds were placed in a linear trough designed for piglets. For a few days, only a small amount of feed was given to the pigs, but when they were eating, the required amount was always in the feeder. The amounts of feeds were properly weighed and recorded. Pre-starter pigs were fed for 30 days using linear feeders while they were confined in slatted and elevated nursery pens. The grower-finisher pigs were fed using concrete linear feeders for 80 days while they were confined in pens with cement flooring. The following rations were fed to pigs corresponding to their age.
(§2) Other management Practices: All experimental animals were subject to the standard operating procedure in the farm where these studies were conducted. Data Collection The following data were collected: 1. Weights of piglets at 7 days old 2. Weight of piglets at 28 days old 3. Weight of pigs at 41, 70, 100, 130, and 150 days old 4. Feed consumption during the following periods:
In this study, the pigs that were used were weaned from sows that were not fed 25-OH D3.

pigs [2] = assay: Swine growth performance, Study A: pigs fed 25-OH D3 and farrowed to sows fed 25-OH D3
Excerpt: as §1, §2
Across parities, pigs weaned from 25-OH D3—fed sows were fed 50 μg 25-OH D3/kg diet and those weaned from control sows were fed the control diet (containing no 25-OH D3). Consistently across the three parities, pigs fed 25-OH D3 gained weight faster (a delta average of 3.9 kg) an converted feed to gain (a delta average of 7 points) more efficient than those fed the control diet.

pigs [3] = assay: Farm records: pigs weaned from 25-OH D3-fed sows but not fed 25-OH D3; details: pigs weaned from 25-OH D3-fed sows but not fed 25-OH D3 (prenatal exposure only)
[4] = mixed-parity pigs, 41-to-150-day old, sows fed without 25-OH D3, 50 mcg 25-OH D3/kg diet
[5] = mixed-parity pigs, 41-to-150-day old, sows fed without 25-OH D3, difference to control
[6] = across parities, prestarting-to-finishing pigs from 25-OH D3-fed sows, 50 μg 25-OH D3/kg diet
[7] = fifth parity pigs, 41-150-day old, sows fed 25-OH D3, 50 mcg 25-OH D3/kg diet
[8] = fifth parity pigs, 41-150-day old, sows fed 25-OH D3, difference to control
[9] = first parity pigs, 41-to-150-day-old, sows fed 25-OH D3, 50 mcg 25-OH D3/kg diet
[10] = first parity pigs, 41-to-150-day-old, sows fed 25-OH D3, difference to control
[11] = fourth parity pigs, 41-150-old, sows fed 25-OH D3, 50 mcg 25-OH D3/kg diet
[12] = fourth parity pigs, 41-150-old, sows fed 25-OH D3, difference to control
[13] = second parity pigs, 41-to-150-day-old, sows fed 25-OH D3, 50 mcg 25-OH D3/kg diet
[14] = second parity pigs, 41-to-150-day-old, sows fed 25-OH D3, difference to control
[15] = third parity pigs, 41-150-day-old, sows fed 25-OH D3, 50 mcg 25-OH D3/kg diet
[16] = third parity pigs, 41-150-day-old, sows fed 25-OH D3, difference to control

Compound: C=C1CC[C@H](O)C/C1=C/C=C1\CCC[C@]2(C)[C@@H]([C@H](C)CCCC(C)(C)O)CC[C@@H]12 [25-OH D3, 25-hydroxy vitamin D3]
- Daily wt gain (pigs [1]; [4]): 0.74 kg
- Feed: Gain (pigs [1]; [4]): 2.34
- Final body wt (pigs [1]; [4]): 89.59 kg
- Initial Body wt (pigs [1]; [4]): 8.44 kg
- Total feed intake (pigs [1]; [4]): 190.05 kg
- Total wt gain (pigs [1]; [4]): 81.15 kg
- Daily wt gain, 25-OH D3 v. control (δ) (pigs [1]; [5]): 0.01 kg
- Feed: Gain, 25-OH D3 v. control (δ) (pigs [1]; [5]): −0.06
- Final body wt, 25-OH D3 v. control (δ) (pigs [1]; [5]): 0.98 kg
- Initial Body wt, 25-OH D3 v. control (δ) (pigs [1]; [5]): 0.11 kg
- Total feed intake, 25-OH D3 v. control (δ) (pigs [1]; [5]): -0.89 kg
- Total wt gain, 25-OH D3 v. control (δ) (pigs [1]; [5]): 0.88 kg
- conversion of feed to weight gain compared with pigs fed without 25-OH D3 (pigs [1]; pigs weaned from sows not fed 25-OH D3): more efficiently
- feed to gain conversion, delta average v. control diet (pigs [2]; [6]): 7 points
- weight gain, delta average v. control diet (pigs [2]; [6]): 3.9 kg
- Daily wt gain (pigs [2]; [7]): 0.76 kg
- Feed: Gain (pigs [2]; [7]): 2.22
- Final body wt (pigs [2]; [7]): 91.94 kg
- Initial Body wt (pigs [2]; [7]): 8.66 kg
- Total feed intake (pigs [2]; [7]): 184.63 kg
- Total wt gain (pigs [2]; [7]): 83.27 kg
- Daily wt gain, 25-OH D3 v. control (δ) (pigs [2]; [8]): 0.03 kg
- Feed: Gain, 25-OH D3 v. control (δ) (pigs [2]; [8]): 0.00
- Final body wt, 25-OH D3 v. control (δ) (pigs [2]; [8]): 2.51 kg
- Initial Body wt, 25-OH D3 v. control (δ) (pigs [2]; [8]): -0.07 kg
- Total feed intake, 25-OH D3 v. control (δ) (pigs [2]; [8]): 5.04 kg
- Total wt gain, 25-OH D3 v. control (δ) (pigs [2]; [8]): 2.57 kg
- Daily wt gain (pigs [2]; [9]): 0.72 kg
- Feed: Gain (pigs [2]; [9]): 2.32
- Final body wt (pigs [2]; [9]): 87.78 kg
- Initial Body wt (pigs [2]; [9]): 8.24 kg
- Total feed intake (pigs [2]; [9]): 184.60 kg
- Total wt gain (pigs [2]; [9]): 79.55 kg
- Daily wt gain, 25-OH D3 v. control (δ) (pigs [2]; [10]): 0.04 kg
- Feed: Gain, 25-OH D3 v. control (δ) (pigs [2]; [10]): −0.15
- Final body wt, 25-OH D3 v. control (δ) (pigs [2]; [10]): 5.72 kg
- Initial Body wt, 25-OH D3 v. control (δ) (pigs [2]; [10]): 0.64 kg
- Total feed intake, 25-OH D3 v. control (δ) (pigs [2]; [10]): 0.86 kg
- Total wt gain, 25-OH D3 v. control (δ) (pigs [2]; [10]): 5.08 kg
- Daily wt gain (pigs [2]; [11]): 0.74 kg
- Feed: Gain (pigs [2]; [11]): 2.07
- Final body wt (pigs [2]; [11]): 89.57 kg
- Initial Body wt (pigs [2]; [11]): 8.43 kg
- Total feed intake (pigs [2]; [11]): 166.93 kg
- Total weight gain (pigs [2]; [11]): 81.15 kg
- Daily wt gain, 25-OH D3 v. control (δ) (pigs [2]; [12]): 0.01 kg
- Feed: Gain, 25-OH D3 v. control (δ) (pigs [2]; [12]): −0.05
- Final body wt, 25-OH D3 v. control (δ) (pigs [2]; [12]): 1.21 kg
- Initial Body wt, 25-OH D3 v. control (δ) (pigs [2]; [12]): 0.15 kg
- Total feed intake, 25-OH D3 v. control (δ) (pigs [2]; [12]): -1.86 kg
- Total weight gain, 25-OH D3 v. control (δ) (pigs [2]; [12]): 1.06 kg
- Daily wt gain (pigs [2]; [13]): 0.78 kg
- Feed: Gain (pigs [2]; [13]): 2.28
- Final body wt (pigs [2]; [13]): 95.78 kg
- Initial Body wt (pigs [2]; [13]): 10.56 kg
- Total feed intake (pigs [2]; [13]): 193.74 kg
- Total wt gain (pigs [2]; [13]): 85.22 kg
- Daily wt gain, 25-OH D3 v. control (δ) (pigs [2]; [14]): 0.06 kg
- Feed: Gain, 25-OH D3 v. control (δ) (pigs [2]; [14]): −0.04
- Final body wt, 25-OH D3 v. control (δ) (pigs [2]; [14]): 7.34 kg
- Initial Body wt, 25-OH D3 v. control (δ) (pigs [2]; [14]): 1.67 kg
- Total feed intake, 25-OH D3 v. control (δ) (pigs [2]; [14]): 9.25 kg
- Total wt gain, 25-OH D3 v. control (δ) (pigs [2]; [14]): 5.59 kg
- Daily weight gain (pigs [2]; [15]): 0.76 kg
- Feed: Gain (pigs [2]; [15]): 2.16
- Final body wt (pigs [2]; [15]): 92.39 kg
- Initial Body wt (pigs [2]; [15]): 8.88 kg
- Total feed intake (pigs [2]; [15]): 179.35 kg
- Total wt gain (pigs [2]; [15]): 83.51 kg
- Daily weight gain, 25-OH D3 v. control (δ) (pigs [2]; [16]): 0.05 kg
- Feed: Gain, 25-OH D3 v. control (δ) (pigs [2]; [16]): −0.13
- Final body wt, 25-OH D3 v. control (δ) (pigs [2]; [16]): 5.88 kg
- Initial Body wt, 25-OH D3 v. control (δ) (pigs [2]; [16]): 0.75 kg
- Total feed intake, 25-OH D3 v. control (δ) (pigs [2]; [16]): 0.52 kg
- Total wt gain, 25-OH D3 v. control (δ) (pigs [2]; [16]): 5.12 kg
- weight gain compared with pigs fed 25-OH D3 (Table 1) (pigs [3]): gain weight slower
- body weight average (pigs [3]; farm records, n=23 pigs): 80.90 kg

From patent publication US20110124608A1, “USE OF 25-HYDROXY VITAMIN D3 TO INCREASE MUSCLE MASS IN MAMMALS” (priority 2007, published 2011)
